# Measurements published in patent US20080194695A1, “Pharmaceutical Composition Containing Sibutramine Free Base and Manufacturing Method Thereof” (priority 2005, published 2008).
# Where a name gives a salt, the structure may show the parent alone. Read-outs that look alike come from different tables or passages of the source.
# Experiments:
# [1] = Dissolution test, paddle method of the Korean Pharmacopoeia, 50 rpm, capsules with sinker, HPLC; assay type: physicochemical
# Description: Dissolution tests were performed with examples 1˜6, comparative examples 1˜2, sibutramine free base itself and Reductil™ (Abbott Korea Limited) containing 10[…] of sibutramine hydrochloride monohydrate. To keep dissolution test condition similar, the contents of sibutramine in examples and comparative examples were evaluated with the below HPLC analysis condition and then the predetermined amount of examples, comparative examples and sibutramine free base itself were filled in one capsule to make capsules having 8.37[…] of sibutramine free base. These capsules were used in dissolution tests.
# 500[…] of pH 4.5 buffered solution [2.99 g of Sodium acetate trihydrate and 1.66[…] of acetic acid anhydrous were dissolved in 1 L of distilled water and then pH of the solution was adjusted to pH 4.5±0.05] and 500[…] of pH 6.8 buffered solution [118[…] of 0.2 mol/L NaOH solution was added to 250[…] of 0.2 mol/L […], and then distilled water was added to make the solution 1000[…]] were used as dissolution media. Paddle method of dissolution test of the Korean Pharmacopoeia was used and paddle was rotated at 50 rpm. Dissolution test was performed for 45 minutes and sinker was also used.
# For HPLC analysis, mixture (350:640:10) of acetonitrile, water and tetrahydrofuran was used as mobile phase and ion pair reagent PIC B5 (Low UV) was added to the mobile phase to adjust retention time of peak, and then pH was adjusted to 3.0 with phosphoric acid. Wavelength for determination was 229[…] and flow rate was 1.5[…]/min and injection volume was 20[…].
# Results were shown as percent (%) of sibutramine dissolved into dissolution media from test samples compared to the total amount of sibutramine contained in each sample.
# [2] = Solubility and dissolution as stated in the background art; conditions: distilled water and pH 6.8 buffered solution
# [3] = Hygroscopicity and storage stability of the drug substance as stated in the background art; conditions: during storage
# [4] = background art; cited from earlier work
# [5] = as said in U.S. Pat. No. 6,900,245; cited from earlier work
SMILES,"percent of sibutramine dissolved into dissolution media ([1]; distilled water, 15 min)","percent of sibutramine dissolved into dissolution media ([1]; distilled water, 30 min)","percent of sibutramine dissolved into dissolution media ([1]; distilled water, 45 min)","percent of sibutramine dissolved into dissolution media ([1]; pH 4.5 buffered solution, 15 min)","percent of sibutramine dissolved into dissolution media ([1]; pH 4.5 buffered solution, 30 min)","percent of sibutramine dissolved into dissolution media ([1]; pH 4.5 buffered solution, 45 min)",dissolution in words ([1]; pH 6.8 buffered solution),"percent of sibutramine dissolved into dissolution media ([1]; pH 6.8 buffered solution, 15 min)","percent of sibutramine dissolved into dissolution media ([1]; pH 6.8 buffered solution, 30 min)","percent of sibutramine dissolved into dissolution media ([1]; pH 6.8 buffered solution, 45 min)",solubility in words [2],storage stability in words [3],hygroscopicity in words [4],solubility in words [5]
"CC(C)CC(N(C)C)C1(c2ccc(Cl)cc2)CCC1 (stereo not drawn) [Sibutramine free base, N,N-dimethyl-1-[1-(4-chlorophenyl)-cyclobutyl]-3-methylbutylamine]",0%,0%,0%,62%,80%,88%,did not practically dissolve,0%,0%,0%,does not almost dissolve,may become sticky gel phase during storage,,
CC(C)CC(N(C)C)C1(c2ccc(Cl)cc2)CCC1.Cl (stereo not drawn) [sibutramine hydrochloride anhydrous],,,,,,,,,,,,,highly hygroscopic,
CC(C)CC(N(C)C)C1(c2ccc(Cl)cc2)CCC1 (stereo not drawn) [sibutramine hydrochloride monohydrate],,,,,,,,,,,,,non-hygroscopic,insufficient
